A short description of series [1]: Sensory evaluation of table-top sweeteners in coffee and iced tea (panel n=6). It is filed as in vivo. The following applies: 200 ml serving. The procedure:
Monatin table-top formulations, including R,R monatin or R,R monatin/erythritol combinations, were assessed relative to other known sweeteners (aspartame and sucralose) in coffee and iced tea. The key sensory parameters assessed included sweetness quality, aftertaste, bitter taste and its aftertaste. Qualitative evaluation has been carried out.
Standard coffee was used in which to evaluate sweetener performance (Table 7).
Sweeteners were added to coffee at the following concentrations: • Aspartame 0.025% (w/v) • Sucralose 0.0082% (w/v) • R,R monatin* 0.0020, 0.0025, 0.0030% (w/v) plus 1 g maltodextrin • R,R monatin/erythritol 0.0020, 0.0025, 0.0030% (w/v) plus 1 g erythritol (ii) Iced Tea
An ice tea formulation was developed to evaluate sweetener performance (Table 8).
Sweeteners were added to tea at the following concentrations:
The evaluation of these coffee and tea drinks was carried out by a small (n=6) panel of experienced sensory evaluators who evaluated the coffee products on one tasting occasion and the tea products on a subsequent occasion.

Series [2] in a line: Sweetness relative to sucrose, panel of trained sensory evaluators, dose response curve. The series is classed as in vivo. The note with it: slope of dose response curve at 8% sucrose equivalence value (SEV). The procedure: One assesses sweetness of a sweetener relative to sucrose by using a panel of trained sensory evaluators experienced in the sweetness estimation procedure. All samples (in same buffers) are served in duplicate at a temperature of 22° C.±1° C. Test solutions, coded with 3 digit random number codes, are presented individually to panelists, in random order. Sucrose reference standards, ranging from 4.0-10.0% (w/v) sucrose, increasing in steps of 0.5% (w/v) sucrose are also provided. Panelists are asked to estimate sweetness by comparing the sweetness of the test solution to the sucrose standards. […] Using information obtained from the panelists, the sweetness intensity or potency is calculated by dividing sucrose equivalent value (SEV) (e.g., % sucrose) by the % monatin at a particular point in a dose response curve.
The S,S stereoisomer of monatin is approximately 50-200 times sweeter than sucrose by weight. […] As discussed above, the sweetness of the monatin is calculated using experienced sensory evaluators in a sweetness comparison procedure, where a test sweetener solution is matched for sweetness intensity against one of a series of reference solutions. […] The intensity sweetness is calculated as the slope in a dose response curve, where the % sucrose is divided by the % monatin. […]

Series [3] is described as follows: Sensory stability of monatin and aspartame at pH 2.5, 3.0, 4.0 at 40° C. (sweetness vs sucrose standards, panel n=8). It is filed as physicochemical. The following applies: for Rate constant (k; day^−1) of sweetness loss: pseudo-first order assumed. The procedure:
The sensory stability of monatin solutions prepared at pH 2.5, 3.0 and 4.0 and stored at 40° C. was monitored for 100 days. Loss of sweetness from these solutions was compared with the losses of sweetness from aspartame solutions prepared and stored under identical conditions.
The sensory stability of monatin (8% SEV, ˜55 ppm, synthetic blend containing approximately 96% of the 2R,4R/2S, 4S enantiometric pair and 4% of the 2R,4S/2S,4R enantiometric pair) in phosphate/citrate buffers having a pH of 2.5, 3.0, and 4.0 was examined after storage at 40° C. The stability of monatin was compared to that of aspartame (400 ppm) in the same buffers. Three sucrose reference solutions were prepared in the same phosphate/citrate buffers as the monatin and aspartame solutions. All prepared solutions were stored in the dark.
• pH2.5 Phosphoric acid (75% solution) 0.127% (w/v) • Tri-sodium citrate monohydrate 0.005% (w/v) • pH3.0 Phosphoric acid (75% solution) 0.092% (w/v) • Tri-sodium citrate monohydrate 0.031% (w/v) • pH4.0 Phosphoric acid (75% solution) 0.071% (w/v) • Tri-sodium citrate monohydrate 0.047% (w/v)
The sweetness of each sweetener relative to sucrose was assessed in duplicate by a small panel (n=8) of trained sensory evaluators experienced in the sweetness estimation procedure. All samples (in the same buffers) were served in duplicate at a temperature of 22° C.±1° C. Monatin (test) solutions, coded with 3 digit random number codes were presented individually to panelists, in random order. Sucrose reference standards, ranging from 4.0-10.0% (w/v) sucrose, increasing in steps of 0.5% (w/v) sucrose were also provided. Panelists were asked to estimate sweetness by comparing the sweetness of the test solution to the sucrose standards. This was carried out by taking 3 sips of the test solution, followed by a sip of water, followed by 3 sips of sucrose standard followed by a sip of water, etc. Panelists were encouraged to estimate the sweetness to one decimal place, e.g., 6.8, 8.5. A five minute rest period was imposed between evaluating the test solutions. Panelists were also asked to rinse well and eat a cracker to reduce any potential carry over effects.
If a pseudo-first order breakdown reaction is assumed, a plot of logn percentage retention versus time (logn% RTN v. t) allows estimation of the half-life (t½) and rate constant (k) of sweetness loss under any given set of conditions. In so doing, the kinetics of monatin and aspartame sweetness loss may be summarized as follows in Table 13.

[4] abbreviates: pH 2.5, 40° C., day 1, aspartame 400 ppm.
The mark [5] stands for this setting: pH 2.5, 40° C., day 2, aspartame 400 ppm.
The mark [6] stands for this setting: pH 2.5, 40° C., day 3, aspartame 400 ppm.
Setting [7] is: pH 2.5, 40° C., day 4, aspartame 400 ppm.
[8] abbreviates: pH 2.5, 40° C., day 7, aspartame 400 ppm.
The mark [9] stands for this setting: pH 2.5, 40° C., day 8, aspartame 400 ppm.
Setting [10] is: pH 2.5, 40° C., day 9, aspartame 400 ppm.
The mark [11] stands for this setting: pH 2.5, 40° C., day 11, aspartame 400 ppm.
Setting [12] is: pH 2.5, 40° C., day 50, aspartame 400 ppm.
Where [13] appears, read: pH 2.5, 40° C., day 100, aspartame 400 ppm.
The mark [14] stands for this setting: pH 3.0, 40° C., day 1, aspartame 400 ppm.
[15] abbreviates: pH 3.0, 40° C., day 2, aspartame 400 ppm.
Where [16] appears, read: pH 3.0, 40° C., day 3, aspartame 400 ppm.
The mark [17] stands for this setting: pH 3.0, 40° C., day 4, aspartame 400 ppm.
The mark [18] stands for this setting: pH 3.0, 40° C., day 7, aspartame 400 ppm.
The mark [19] stands for this setting: pH 3.0, 40° C., day 8, aspartame 400 ppm.
Where [20] appears, read: pH 3.0, 40° C., day 9, aspartame 400 ppm.
The mark [21] stands for this setting: pH 3.0, 40° C., day 11, aspartame 400 ppm.
[22] abbreviates: pH 3.0, 40° C., day 50, aspartame 400 ppm.
[23] abbreviates: pH 3.0, 40° C., day 100, aspartame 400 ppm.
The mark [24] stands for this setting: pH 4.0, 40° C., day 3, aspartame 400 ppm.
The mark [25] stands for this setting: pH 4.0, 40° C., day 8, aspartame 400 ppm.
Where [26] appears, read: pH 4.0, 40° C., day 11, aspartame 400 ppm.
The mark [27] stands for this setting: pH 4.0, 40° C., day 17, aspartame 400 ppm.
Where [28] appears, read: pH 4.0, 40° C., day 24, aspartame 400 ppm.
The mark [29] stands for this setting: pH 4.0, 40° C., day 50, aspartame 400 ppm.
Where [30] appears, read: pH 4.0, 40° C., day 100, aspartame 400 ppm.

Residues, ends and D or L forms follow the SMILES beside them.

On to `OC[C@H]1O[C@H](O[C@]2(CCl)O[C@H](CCl)[C@@H](O)[C@@H]2O)[C@H](O)[C@@H](O)[C@H]1Cl` [Sucralose], for which the “Comments (sensory evaluation)” value in series [1] (Coffee, Sucralose 82 ppm) is “Slow sweetness onset allows stronger”; in series [1] (Iced Tea, Sucralose 170 ppm), “Delay in sweetness onset means first”.
In the case of `NC(CC(O)(Cc1c[nH]c2ccccc12)C(=O)O)C(=O)O` (centres unmarked) [S,S monatin], the “sweetness compared to sucrose by weight” value in series [2] was 50-200 times sweeter than sucrose by weight.
As to `N[C@H](C[C@](O)(Cc1c[nH]c2ccccc12)C(=O)O)C(=O)O` [R,R monatin], in series [2], the “sweetness compared to sucrose by weight” value was 2000-2400 times sweeter than sucrose by weight.
Regarding `COC(=O)[C@H](Cc1ccccc1)NC(=O)[C@@H](N)CC(=O)O` [Aspartame, reference compound] (H-Asp-Phe-OMe), in series [1] (Coffee, Aspartame 250 ppm), the “Comments (sensory evaluation)” value is “Balanced sweetness profile. Very low level”. Further, the “SEV Aspartame (% sucrose)” value was 7.34 % sucrose in series [3] (pH 2.5, 40° C., day 0, aspartame 400 ppm); 6.90 % sucrose in series [3] (setting [4]); 6.80 % sucrose in series [3] (setting [5]); 6.60 % sucrose in series [3] (setting [6]); 6.29 % sucrose in series [3] (setting [7]); 6.01 % sucrose in series [3] (setting [8]). The “SEV Aspartame (% sucrose)” value in series [3] (setting [9]) worked out at 5.98 % sucrose; in series [3] (setting [10]) it was 5.97 % sucrose; in series [3] (setting [11]) it was 5.86 % sucrose; in series [3] (setting [12]) it was 4.19 % sucrose; in series [3] (setting [13]), 0.80 % sucrose; in series [3] (pH 3.0, 40° C., day 0, aspartame 400 ppm), 7.15 % sucrose. The “SEV Aspartame (% sucrose)” value is given as 6.90 % sucrose in series [3] (setting [14]); 6.87 % sucrose in series [3] (setting [15]); 6.60 % sucrose in series [3] (setting [16]); 6.43 % sucrose in series [3] (setting [17]); 6.17 % sucrose in series [3] (setting [18]); 5.93 % sucrose in series [3] (setting [19]). The “SEV Aspartame (% sucrose)” value in series [3] (setting [20]) came to 5.94 % sucrose; in series [3] (setting [21]), 5.83 % sucrose; in series [3] (setting [22]), 4.71 % sucrose; in series [3] (setting [23]), 2.20 % sucrose; in series [3] (pH 4.0, 40° C., day 0, aspartame 400 ppm), 7.10 % sucrose; in series [3] (setting [24]), 6.75 % sucrose. Also, the “SEV Aspartame (% sucrose)” value was determined as 6.23 % sucrose in series [3] (setting [25]); 6.02 % sucrose in series [3] (setting [26]); 5.75 % sucrose in series [3] (setting [27]); 5.85 % sucrose in series [3] (setting [28]); 5.29 % sucrose in series [3] (setting [29]); 4.10 % sucrose in series [3] (setting [30]). In addition, the “Retention of Aspartame Sweetness (%)” value is listed as 94.0% in series [3] (setting [4]); 92.6% in series [3] (setting [5]); 89.9% in series [3] (setting [6]); 85.7% in series [3] (setting [7]); 81.9% in series [3] (setting [8]); 81.5% in series [3] (setting [9]). The “Retention of Aspartame Sweetness (%)” value in series [3] (setting [10]) is 81.3%; in series [3] (setting [11]), 79.8%; in series [3] (setting [12]) it was 57.1%; in series [3] (setting [13]) it was 10.9%; in series [3] (setting [14]), 96.5%; in series [3] (setting [15]) it was 96.1%. The “Retention of Aspartame Sweetness (%)” value in series [3] (setting [16]) was 92.3%; in series [3] (setting [17]), 89.9%; in series [3] (setting [18]), 86.3%; in series [3] (setting [19]), 82.9%; in series [3] (setting [20]) it was 83.1%; in series [3] (setting [21]) it was 81.5%. The “Retention of Aspartame Sweetness (%)” value in series [3] (setting [22]) came out at 65.9%; in series [3] (setting [23]) it was 30.8%; in series [3] (setting [24]), 95.1%; in series [3] (setting [25]) it was 87.8%; in series [3] (setting [26]) it was 84.8%; in series [3] (setting [27]) it was 81.0%. Moreover, the “Retention of Aspartame Sweetness (%)” value is on record as 82.4% in series [3] (setting [28]), 74.5% in series [3] (setting [29]) and 57.7% in series [3] (setting [30]). Moreover, the “Rate constant (k; day^−1) of sweetness loss” value in series [3] (pH 2.5, 40° C.) was found to be 0.013 day⁻¹; in series [3] (pH 3.0, 40° C.), 0.009 day⁻¹; in series [3] (pH 4.0, 40° C.), 0.005 day⁻¹. In addition, the “Sweetness Retained (%)” value is reported as 11% in series [3] (pH 2.5, 100 days storage at 40° C.); 31% in series [3] (pH 3.0, 100 days storage at 40° C.); 58% in series [3] (pH 4.0, 100 days storage at 40° C.).

These data come from patent US20050112260A1, “Monatin tabletop sweetener compositions and methods of making same” (Cargill, Inc., priority 2003, published 2005).
